Test results: patent US9062014B2, “Crystalline forms of (R)-5-[3-chloro-4-(2,3-dihydroxy-propoxy)-benz[Z]ylidene]-2-([Z]-propylimino)-3-0-tolyl-thiazolidin-4-one” (ACTELION PHARMACEUTICALS LTD., priority 2008, dated 2015)

Assay: Hygroscopicity by gravimetric vapour sorption (GVS)
Assay type: physicochemical
Settings: 25° C.; for Hygroscopicity classification according to the European Pharmacopea Technical Guide (1999 edition): mass change between 40% and 80% relative humidity, first adsorption scan; for mass gain: mass change between 40% relative humidity and 80% relative humidity in the first adsorption scan
Protocol: Gravimetric Vapour Sorption (GVS)
Sorption isotherms are obtained using a Hiden IGASorp moisture sorption analyser, controlled by CFRSorp software. The sample temperature is maintained at 25° C. by a Huber re-circulating water bath. The humidity is controlled by mixing streams of dry and wet nitrogen, with a total flow rate of 250 ml·min^−1. The relative humidity is measured by a calibrated Vaisala RH probe (dynamic range of 0-95% RH), located near the sample. The weight change of the sample as a function of % RH is constantly monitored by the microbalance (accuracy±0.001 mg).
Typically 10-20 mg of sample is placed in a tared mesh stainless steel basket under ambient conditions. The sample is loaded and unloaded at 40% RH and 25° C. (typical room conditions).
A moisture sorption isotherm is performed as outlined below (2 scans giving 1 complete cycle). The standard isotherm is performed at 25° C. at 10% RH intervals over a 0-90% RH range.
The software uses a least squares minimisation procedure together with a model of the mass relaxation, to predict an asymptotic value. The measured mass relaxation value must be within 5% of that predicted by the software, before the next % RH value is selected. The minimum equilibration time is set to 1 hour and the maximum to 4 hours.
Classification is done according to the European Pharmacopea Technical Guide (1999 edition) (e.g. slightly hygroscopic: increase in mass is less than 2% and equal to or greater than 0.2% mass/mass; hygroscopic: increase in mass is less than 15% and equal to or greater than 2% mass/mass). The mass change between 40% relative humidity and 80% relative humidity in the first adsorption scan is considered.

Compound	Hygroscopicity classification according to the European Pharmacopea Technical Guide (1999 edition)	mass gain [%]
CCC/N=C1\S/C(=C\c2ccc(OC[C@H](O)CO)c(Cl)c2)C(=O)N1c1ccccc1C [Amorphous, (R)-5-[3-chloro-4-(2,3-dihydroxy-propoxy)-benz[Z]ylidene]-2-([Z]-propylimino)-3-o-tolyl-thiazolidin-4-one]	Hygroscopic (hygroscopic: increase in mass is less than 15% and equal to or greater than 2% mass/mass)	2.1
CCC/N=C1\S/C(=C\c2ccc(OC[C@H](O)CO)c(Cl)c2)C(=O)N1c1ccccc1C [Form A, (R)-5-[3-chloro-4-(2,3-dihydroxy-propoxy)-benz[Z]ylidene]-2-([Z]-propylimino)-3-o-tolyl-thiazolidin-4-one]	Non-hygroscopic	< 0.2
CCC/N=C1\S/C(=C\c2ccc(OC[C@H](O)CO)c(Cl)c2)C(=O)N1c1ccccc1C [Form C, (R)-5-[3-chloro-4-(2,3-dihydroxy-propoxy)-benz[Z]ylidene]-2-([Z]-propylimino)-3-o-tolyl-thiazolidin-4-one]	Non-hygroscopic	< 0.2
CCC/N=C1\S/C(=C\c2ccc(OC[C@H](O)CO)c(Cl)c2)C(=O)N1c1ccccc1C [Form II, (R)-5-[3-chloro-4-(2,3-dihydroxy-propoxy)-benz[Z]ylidene]-2-([Z]-propylimino)-3-o-tolyl-thiazolidin-4-one]	Slightly hygroscopic (slightly hygroscopic: increase in mass is less than 2% and equal to or greater than 0.2% mass/mass)	0.2
